Measured values reported in paper PMC9147695, “Design, Synthesis, Bioactivity Evaluation, Crystal Structures, and In Silico Studies of New α-Amino Amide Derivatives as Potential Histone Deacetylase 6 Inhibitors” (Molecules, 2022).
Where two headings read alike, the source gives them in different places.

Key:
Hela = experiment: Anti-proliferative activity, CTG assay, Hela cells; format: cell-based; conditions: 72 h; for inhibition at 10 µM / inhibition at 50 µM: read-out: Inhibition rate Hela (%)
Protocol: (§1) RPMI 8226 and HL-7702 cells were cultured in RPMI-1640 medium, Hela cells were cultured in MEM medium, and HL-60 cells were cultured in IMDM medium with 1% penicillin–streptomycin solution and 10% FBS, respectively. The above cells were cultured at 37 °C and 5% CO2. After 24 h of cell spreading, 99 μL of medium per well was prepared and 1 μL of the compound prepared solution was added to the wells. Then, the solution was incubated at 37 °C in a 5% CO2 incubator for 72 h. The cell plates to be tested were left at room temperature and 100 μL of medium per well was discarded. Then, 100 μL of CTG reagent was added, placed in a rapid shaker for 2 min, and left at room temperature away from light for 30 min. The chemiluminescence signal was read by an envision multifunctional enzyme marker. The inhibition ratios and IC50 values were calculated using Prism Graph Pad software.

HL-60 = experiment: Anti-proliferative activity, CTG assay, HL-60 cells; format: cell-based; conditions: for inhibition at 10 µM / inhibition at 50 µM: read-out: Inhibition rate HL-60 (%)
Protocol: as §1

RPMI 8226 = experiment: Anti-proliferative activity, CTG assay, RPMI 8226 cells; format: cell-based; conditions: for inhibition at 10 µM / inhibition at 50 µM: read-out: Inhibition rate RPMI 8226 (%); for IC50: read-out: RPMI8226 (IC50)
Protocol: as §1

HL-7702 = experiment: Cytotoxicity toward human normal liver cells HL-7702, CTG assay; format: cell-based; conditions: 72 h, read-out: 50% cytotoxic concentration (CC50) HL-7702
Protocol: as §1

[1] = as above; format: cell-based; conditions: human, HL-7702 normal liver cells, read-out: 50% cytotoxic concentration (CC50) HL-7702
Protocol: as §1

[2] = Homo sapiens, HL-60, 72 h, 10 μM
[3] = Homo sapiens, HL-60, 72 h, 50 μM
[4] = Homo sapiens, RPMI-8226, 72 h, 10 μM
[5] = Homo sapiens, RPMI-8226, 72 h, 50 μM

| Structure (SMILES) | inhibition at 10 µM (Hela; Homo sapiens, HeLa, 10 μM) [%] | inhibition at 50 µM (Hela; Homo sapiens, HeLa, 50 μM) [%] | inhibition at 10 µM (HL-60; [2]) [%] | inhibition at 50 µM (HL-60; [3]) [%] | inhibition at 10 µM (RPMI 8226; [4]) [%] | inhibition at 50 µM (RPMI 8226; [5]) [%] | melting point [°C] | CC50 at 72 h [1] [µM] | IC50 (HL-60; Homo sapiens, HL-60, 72 h) [µM] | IC50 (RPMI 8226; Homo sapiens, RPMI-8226, 72 h) [µM] | other results |
| --- | --- | --- | --- | --- | --- | --- | --- | --- | --- | --- | --- |
| COC(=O)[C@@H]1CCCN1S(=O)(=O)c1ccc(-c2ccc(NC(=O)[C@H](C)N)nc2)cc1 [13f, (2S)-1-(4-{6-[(2S)-2-Aminopropionamido]pyridin-3-yl}benzenesulfonyl)pyrrolidine-2-carboxylate Methyl Ester] | -6.37 ± 0.44 | 91.57 ± 0.51 | 13.9 ± 0.73 | 99.81 ± 0.12 | 12.4 ± 0.52 | 89.23 ± 0.24 | 146.8 to 149.1 | – | – | – | – |
| COC(=O)C1CCCN1S(=O)(=O)c1ccc(-c2ccc(NC(=O)CN)cc2)cc1 [13a, (2S)-Methyl 1-{4-[4-[4-(2-Aminoacetamido)phenyl]benzenesulfonyl}pyrrolidine-2-carboxylate] | 98.74 ± 0.04 | 99.68 ± 0.17 | 59 ± 2.12 | 99.25 ± 0.08 | 63.1 ± 1.99 | 99.89 ± 0.06 | – | – | – | – | CC50 (HL-7702): 27.5 µM; IC50 (Hela): 5.19 µM; IC50 (HL-60; 72 h): 7.23 µM; IC50 (RPMI 8226; 72 h): 5.85 µM |
| COC(=O)[C@@H]1CCCN1S(=O)(=O)c1ccc(-c2ccc(NC(=O)[C@H](C)N)cc2)cc1 [13c, Methyl (2S)-1-(4-{4-[(2S)-2-Aminopropionamido]phenyl}benzenesulfonyl)pyrrolidine-2-carboxylate] | -3.69 ± 0.34 | 72.3 ± 1.57 | 20 ± 2.83 | 96.55 ± 0.22 | 29.6 ± 0.48 | 82.9 ± 2.04 | 155.3 to 157.6 | 43.7 | 30.9 | 10.7 | IC50 (Hela; Homo sapiens, HeLa): 20.6 µM |
| O=C(CCCCCCC(=O)Nc1ccccc1)NO [SAHA, vorinostat, reference compound] | – | – | – | – | – | – | – | 2.03 | – | – | – |
| COC(=O)[C@H]1CCCN1S(=O)(=O)c1ccc(-c2ccc(NC(=O)CN)nc2)cc1 [7d] | -5.24 ± 0.18 | 41.8 ± 2.62 | 5.53 ± 1.21 | 16.9 ± 1.74 | 1.7 ± 0.72 | 89.7 ± 1.48 | 170.2 to 173.5 | – | – | – | – |
| COC(=O)[C@H]1CCCN1S(=O)(=O)c1ccc(-c2ccc(NC(=O)[C@@H](C)N)nc2)cc1 [7e, Methyl (2R)-1-(4-{6-[(2R)-2-Aminopropionamido]pyridin-3-yl}benzenesulfonyl)pyrrolidine-2-carboxylate] | -11.9 ± 1.69 | 7.27 ± 0.41 | -0.89 ± 2.31 | 17.8 ± 0.86 | -2.63 ± 2.86 | 24.4 ± 0.79 | 146 to 148.4 | – | – | – | – |
| COC(=O)C1CCCN1S(=O)(=O)c1ccc(-c2ccc(NC(=O)CN)cc2)cc1 [7a, (2R)-Methyl 1-{4-[4-[4-(2-Aminoacetamido)phenyl]benzenesulfonyl}pyrrolidine-2-carboxylate] | – | – | – | – | – | – | 163.4 to 165.3 | 21.1 | 10.8 | 4.16 | Inhibition rate Hela (%) (Hela; 10 μM): 98.11 ± 1.33%; Inhibition rate Hela (%) (Hela; 50 μM): 99.84 ± 0.11%; IC50 (Hela): 0.31 µM; Inhibition rate HL-60 (%) (HL-60; 10 μM, 72 h): 42.45 ± 1.11%; Inhibition rate HL-60 (%) (HL-60; 50 μM, 72 h): 97.24 ± 0.02%; Inhibition rate RPMI 8226 (%) (RPMI 8226; 10 μM, 72 h): 74.54 ± 1.06%; Inhibition rate RPMI 8226 (%) (RPMI 8226; 50 μM, 72 h): 99.78 ± 0.03% |
| COC(=O)[C@@H]1CCCN1S(=O)(=O)c1ccc(-c2ccc(NC(=O)CN)nc2)cc1 [13d] | -18.4 ± 2.15 | 33.4 ± 1.97 | 32 ± 3.2 | 99.93 ± 0.05 | 0.01 ± 0.52 | 92.27 ± 0.08 | 170.3 to 172.9 | – | 10.5 | 32.2 | IC50 (Hela; Homo sapiens, HeLa): 17.4 µM |
| COC(=O)[C@H]1CCCN1S(=O)(=O)c1ccc(-c2ccc(NC(=O)[C@H](C)N)cc2)cc1 [7c, Methyl (2R)-1-(4-{4-[(2S)-2-Aminopropionamido]phenyl}benzenesulfonyl)pyrrolidine-2-carboxylate] | -13.5 ± 1.33 | 8.63 ± 2.03 | 2.78 ± 0.7 | 49.6 ± 0.82 | 1.42 ± 0.97 | 49.7 ± 1.35 | 155.1 to 158.3 | – | – | – | – |
| COC(=O)[C@H]1CCCN1S(=O)(=O)c1ccc(-c2ccc(NC(=O)[C@H](C)N)nc2)cc1 [7f, (2R)-1-(4-{6-[(2S)-2-Aminopropionamido]pyridin-3-yl}benzenesulfonyl)pyrrolidine-2-carboxylate Methyl Ester] | -2.62 ± 1.36 | 21.6 ± 6.65 | 11.1 ± 0.74 | 28.2 ± 0.98 | -4.38 ± 0.19 | 29.4 ± 5.22 | 146.2 to 148.9 | – | – | – | – |
| COC(=O)[C@@H]1CCCN1S(=O)(=O)c1ccc(-c2ccc(NC(=O)[C@@H](C)N)nc2)cc1 [13e, Methyl (2S)-1-(4-{6-[(2R)-2-Aminopropionamido]pyridin-3-yl}benzenesulfonyl)pyrrolidine-2-carboxylate] | -12.6 ± 1.59 | 81.6 ± 1.09 | 17.43 ± 0.16 | 99.98 ± 0.05 | 5.5 ± 1.12 | 94.89 ± 0.02 | 146.2 to 148.9 | – | – | – | – |
| COC(=O)[C@H]1CCCN1S(=O)(=O)c1ccc(-c2ccc(NC(=O)[C@@H](C)N)cc2)cc1 [7b, (2R)-1-(4-{4-[(2R)-2-Aminopropionamido]phenyl}benzenesulfonyl)pyrrolidine-2-carboxylate Methyl Ester] | -10.9 ± 2.58 | 2.44 ± 0.72 | 4.32 ± 1.35 | 46.9 ± 1.33 | -4.81 ± 3.62 | 41.4 ± 1.25 | 157.4 to 159.1 | – | – | – | – |
| COC(=O)[C@@H]1CCCN1S(=O)(=O)c1ccc(-c2ccc(NC(=O)[C@@H](C)N)cc2)cc1 [13b, (2S)-1-(4-{4-[(2R)-2-Aminopropionamido]phenyl}benzenesulfonyl)pyrrolidine-2-carboxylate Methyl Ester] | -4.83 ± 3.13 | 62.27 ± 0.57 | 43.49 ± 0.21 | 100.03 ± 0.04 | 0.89 ± 3.52 | 97.45 ± 0.36 | 156.4 to 159.1 | 89.1 | 10.3 | 25.2 | IC50 (Hela; Homo sapiens, HeLa): 20.6 µM |
